The target in series [1] is T1, α1B Human Adrenergic Receptor (Homo sapiens, UniProt P35368).
T1 construct: The entire coding region of α1B (1563 bp); expressed in transfected cells
T1 sequence (P35368 1-520): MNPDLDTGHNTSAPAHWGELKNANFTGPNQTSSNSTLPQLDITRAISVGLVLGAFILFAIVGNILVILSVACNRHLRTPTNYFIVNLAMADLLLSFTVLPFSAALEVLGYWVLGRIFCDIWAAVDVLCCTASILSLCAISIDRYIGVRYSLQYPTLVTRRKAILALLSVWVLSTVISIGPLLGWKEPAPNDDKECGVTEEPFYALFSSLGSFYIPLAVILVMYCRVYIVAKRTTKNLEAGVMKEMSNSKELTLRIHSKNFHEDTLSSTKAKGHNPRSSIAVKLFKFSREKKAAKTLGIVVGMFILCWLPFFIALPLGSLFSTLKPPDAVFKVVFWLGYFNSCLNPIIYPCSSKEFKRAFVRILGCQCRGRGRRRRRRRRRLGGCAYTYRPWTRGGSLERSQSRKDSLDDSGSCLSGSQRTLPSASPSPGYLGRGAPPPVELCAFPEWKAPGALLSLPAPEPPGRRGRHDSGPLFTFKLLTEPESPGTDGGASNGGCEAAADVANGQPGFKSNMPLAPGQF
Description: Radioligand binding, [3H]prazosin, cloned human α1B adrenergic receptor. How it is done: (§1) The protocols for these experiments are given below.
(§2) These cell lines were prepared by transfecting the cloned cDNA or cloned genomic DNA or constructs containing both genomic DNA and cDNA encoding the human α-adrenergic receptors as follows:
α1B Human Adrenergic Receptor:
The construct involved ligating the full-length containing EcoRI brainstem cDNA fragment from λ ZapII into the expression vector. Stable cell lines were selected as described above.
(§3) Radioligand Binding Assays:
(§4) Transfected cells from culture flasks were scraped into 5 ml of 5 mM Tris-HCl, 5 mM EDTA, pH 7.5, and lysed by sonication. The cell lysates were centrifuged at 1000 rpm for 5 min at 4° C., and the supernatant was centrifuged at 30,000× g for 20 min at 4° C. The pellet was suspended in 50 mM Tris-HCl, 1 mM MgCl2, and 0.1% ascorbic acid at pH 7.5. Binding of the α1 antagonist [^3H]prazosin (0.5 nM, specific activity 76.2 Ci/mmol) to membrane preparations of LM(tk−) cells was done in a final volume of 0.25 ml and incubated at 37° C. for 20 min. Nonspecific binding was determined in the presence of 10 μM phentolamine. The reaction was stopped by filtration through GF/B filters using a cell harvester.

Series [2] addresses T2, α1A Human Adrenergic Receptor (Homo sapiens, UniProt P25100).
T2 construct: The entire coding region of α1A (1719 bp); expressed in transfected cells
T2 sequence (P25100 1-572): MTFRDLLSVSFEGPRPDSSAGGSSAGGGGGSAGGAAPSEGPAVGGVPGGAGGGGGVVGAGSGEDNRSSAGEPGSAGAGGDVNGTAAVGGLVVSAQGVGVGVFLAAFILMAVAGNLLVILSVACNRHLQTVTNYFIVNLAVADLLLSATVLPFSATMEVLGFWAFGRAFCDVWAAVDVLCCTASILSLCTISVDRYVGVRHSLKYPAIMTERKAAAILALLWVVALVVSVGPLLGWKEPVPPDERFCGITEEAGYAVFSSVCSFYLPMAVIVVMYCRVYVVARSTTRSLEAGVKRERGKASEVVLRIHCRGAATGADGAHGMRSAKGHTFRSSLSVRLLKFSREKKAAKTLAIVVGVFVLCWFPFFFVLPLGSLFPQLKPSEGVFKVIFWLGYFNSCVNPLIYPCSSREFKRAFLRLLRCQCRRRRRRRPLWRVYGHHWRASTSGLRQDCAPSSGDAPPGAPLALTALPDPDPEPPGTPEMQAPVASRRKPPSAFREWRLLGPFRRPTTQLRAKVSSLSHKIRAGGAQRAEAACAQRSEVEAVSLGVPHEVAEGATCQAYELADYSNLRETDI
Description: Radioligand binding, [3H]prazosin, cloned human α1A adrenergic receptor. How it is done: as §1, §2
α1A Human Adrenergic Receptor:
The cells were grown, in a controlled environment (37° C., 5% CO2), as monolayers in Dulbecco's modified Eagle's Medium (GIBCO, Grand Island, N.Y.) containing 25 mM glucose and supplemented with 10% bovine calf serum, 100 units/ml penicillin g, and 100 μg/ml streptomycin sulfate.
as §3, §4

Series [3] has as its target T3, α1C Human Adrenergic Receptor (Homo sapiens, UniProt P35348).
T3 construct: The entire coding region of α1C (1401 bp); expressed in transfected cells
T3 sequence (P35348 1-466): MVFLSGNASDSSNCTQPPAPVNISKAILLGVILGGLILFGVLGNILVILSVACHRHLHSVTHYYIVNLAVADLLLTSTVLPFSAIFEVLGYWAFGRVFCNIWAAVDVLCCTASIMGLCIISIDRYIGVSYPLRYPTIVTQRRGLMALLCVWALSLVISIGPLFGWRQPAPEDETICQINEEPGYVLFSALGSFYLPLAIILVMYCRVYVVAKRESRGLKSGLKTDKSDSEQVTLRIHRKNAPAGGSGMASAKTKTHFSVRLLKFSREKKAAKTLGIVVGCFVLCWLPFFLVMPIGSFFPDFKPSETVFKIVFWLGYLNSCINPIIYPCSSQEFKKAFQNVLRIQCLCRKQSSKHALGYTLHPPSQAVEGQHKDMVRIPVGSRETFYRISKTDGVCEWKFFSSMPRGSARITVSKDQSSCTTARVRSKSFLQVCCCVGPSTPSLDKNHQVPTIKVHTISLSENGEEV
Description: Radioligand binding, [3H]prazosin, cloned human α1C adrenergic receptor. The procedure: as §1, §2
α1C Human Adrenergic Receptor:
The construct involved ligating three partial overlapping fragments: a 5′, 0.6 kb HincII genomic clone, a central 1.8 EcoRI hippocampal cDNA clone, and a 3′ 0.6Kb PstI genomic clone. The hippocampal cDNA fragment overlaps with the 5′ and 3′ genomic clones so that the HincII and PstI sites at the 5′ and 3′ ends of the cDNA clone, respectively, were utilized for ligation. This full-length clone was cloned into the KpnI site of the expression vector, using the 5′ and 3′ KpnI sites of the fragment, derived from vector (i.e., pBluescript) and 3′-untranslated sequences, respectively. Stable cell lines were selected as described above.
as §3, §4

[4] abbreviates: cloned human α1B receptor, LM(tk−) cell membranes, read-out: pKi alpha-1 1b (converted).
Where [5] appears, read: cloned human α1C receptor, LM(tk−) cell membranes, read-out: pKi alpha-1 1c (converted).
The mark [6] stands for this setting: [3H]prazosin, cloned human α1A receptor, LM(tk−) cell membranes, read-out: pKi alpha-1 1a (converted).
[7] abbreviates: [3H]prazosin, cloned human receptor, LM(tk-) cell membranes, mean, read-out: PKi alpha-1 1a (converted).
Setting [8] is: cloned human receptor, LM(tk-) cell membranes, mean, read-out: PKi alpha-1 1b (converted).
[9] abbreviates: cloned human receptor, LM(tk-) cell membranes, mean, read-out: PKi alpha-1 1c (converted).

Molecules are shown by their SMILES. Where a name gives a salt, the structure may show the parent alone. Read-outs that look alike come from different tables or passages of the source.

The compound `CCC1=C(C(N)=O)C(c2ccc([N+](=O)[O-])cc2)C(C(=O)NCCCN2CCC(c3ccccc3)(c3ccccc3)CC2)=C(COCCN=[N+]=[N-])N1` (stereo not shown) showed a melting point of 88 to 93 °C.
On to `CCOC(=O)C1=C(CC(=O)NCCCN2CCC(c3ccccc3)(c3ccccc3)CC2)NC(C)=C(C(=O)OC)C1c1ccc([N+](=O)[O-])cc1` (stereo not shown) (as salt: fumarate) [Example 89, 3-Ethoxycarbonyl-1,4-dihydro-5-methoxycarbonyl-6-methyl-4-(4-nitro)phenyl-2-(N-(3-(4,4,-diphenylpiperidin-1-yl)propyl)carboxamido)methylpyridine, fumarate salt], for which the melting point lay in the range of 134 to 137 °C.
`COC(=O)C1=C(C)NC(C)=C(C(=O)NCCCCN2CCC(c3ccccc3)CC2)C1c1ccc([N+](=O)[O-])cc1` (stereo not shown) (as salt: hydrochloride) (hydrate or solvate) [Example 3, 1,4-Dihydro-3-methoxycarbonyl-2,6-dimethyl-4-(4-nitrophenyl)-5-{N-[4-(4-phenylpiperidin-1-yl)butyl]}carbozamidopyridine hydrochloride hydrate] yielded a melting point of 136 to 137 °C.
In the case of `CNC(=O)C1=C(C)NC(C)=C(C(=O)NCCCN2CCC(c3ccccc3)(c3ccccc3)CC2)C1c1ccc([N+](=O)[O-])cc1` (single isomer, unassigned; (+)) [(+)-119, 1,4-dihydro-2,6-dimethyl-5-(N-methyl) carboxamido-4-(4-nitrophenyl)-3-{N-[3-(4,4-diphenylpiperidin-1-yl)propyl]} carboxamidopyridine], the Ki is 832 nM in series [1] (setting [4]), 1290 nM in series [2] (pKi alpha-1 1a) and 380 nM in series [3] (setting [5]).
With `CNC(=O)C1=C(C)NC(C)=C(C(=O)NCCCN2CCC(c3ccccc3)(c3ccccc3)CC2)C1c1ccc([N+](=O)[O-])cc1` (single isomer, unassigned; (-)) [(−)-119, 1,4-dihydro-2,6-dimethyl-5-(N-methyl) carboxamido-4-(4-nitrophenyl)-3-{N-[3-(4,4-diphenylpiperidin-1-yl)propyl]} carboxamidopyridine], the values for the Ki in series [1] (setting [4]), in series [2] (pKi alpha-1 1a) and in series [3] (setting [5]) were 676 nM, 1170 nM and 2.57 nM, respectively.
On to `COC(=O)C1=C(C)NC(C)=C(C(=O)NCCCN2CCc3ccccc3C2)C1c1ccc([N+](=O)[O-])cc1` (stereo not shown) [Example 59, 1,4-Dihydro-5-{N-[3-(1,2,3,4-tetrahydroisoquinolin-2-yl)propyl]}carboxamido-3-methoxycarbonyl-2,6-dimethyl-4-(4-nitrophenyl)pyridine hydrochloride hydrate], for which the Ki in series [1] (cloned human receptor in LM(tk-) cell membranes, SEM and n in lines below, read-out: pKi alpha-1 1b (converted)) was 389 nM; in series [2] ([3H]prazosin, cloned human receptor in LM(tk-) cell membranes, SEM and n in lines below, read-out: pKi alpha-1 1a (converted)), 513 nM; in series [3] (cloned human receptor in LM(tk-) cell membranes, SEM and n in lines below, read-out: pKi alpha-1 1c (converted)), 245 nM.
Consider `CCC1=C(C(=O)NC)C(c2ccc([N+](=O)[O-])cc2)C(C(=O)NCCCN2CCC(OC)(c3ccccc3)CC2)=C(CC)N1` (stereo not shown) [Example 108], for which the Ki in series [1] (setting [4]) was 4170 nM; in series [2] (setting [6]), 2950 nM; in series [3] (setting [5]), 6.92 nM.
`CCC1=C(C(=O)O)C(c2ccc([N+](=O)[O-])cc2)C(C(=O)NCCCN2CCC(c3ccccc3)(c3ccccc3)CC2)=C(CC)N1` (stereo not shown) [Example 130, 2,6-Diethyl-1,4-dihydro-4-(4-nitrophenyl)-5-{N-[3-(4,4-diphenylpiperidin-1-yl)propyl]}carboxamidopyridine-3-carboxylic acid]: the values for the Ki in series [1] (setting [4]), in series [2] (setting [6]) and in series [3] (setting [5]) were 417 nM, 912 nM and 10.7 nM, respectively.
Regarding `CCC1=C(C(=O)NCCCN2CCC(c3ccccc3)(c3ccccc3)CC2)C(c2ccc([N+](=O)[O-])cc2)C(C(=O)OC(C)(C)C)=C(COCCN)N1` (stereo not shown) [Example 140], the Ki in series [1] (setting [4]) is 14500 nM; in series [2] (setting [6]) it was 7240 nM; in series [3] (setting [5]), 7080 nM.
The like results for `CC1=C(C(=O)OCC[Si](C)(C)C)C(c2ccc([N+](=O)[O-])cc2)C(C(=O)NCCCN2CCC(c3ccccc3)(c3ccccc3)CC2)=C(COCCN=[N+]=[N-])N1` (stereo not shown) [Example 152, 2-((2-Azidoethyl)oxy)methyl-1,4-dihydro-6-methyl-s-(2-trimethylsilylethoxy)carbonyl-4-(4-nitro)phenyl-3-(N-(3-(4,4-diphenylpiperidin-1-yl)propyl))carboxamidopyridine] were, in that order, 219 nM, 490 nM and 933 nM.
With `COC(=O)C1=C(C)NC(C)=C(C(=O)NCCCN2CCC(C(=O)OC)(c3ccccc3)CC2)C1c1ccc([N+](=O)[O-])cc1` (stereo not shown) [Example 206, 1,4-Dihydro-2,6-dimethyl-5-methoxycarbonyl-3-{N-[3-(4-methoxycarbonyl-4-phenylpiperidin-1-yl)propyl]}carboxamido-4-(4-nitrophenyl)pyridine], in series [2] (setting [7]), the Ki was 1150 nM.
For the compound `CC1=C(C(N)=O)C(c2ccc([N+](=O)[O-])cc2)C(C(=O)NCCCN2CCC(C#N)(c3ccccc3)CC2)=C(COCCN)N1` (stereo not shown) [Example 215], the values for the Ki in series [1] (setting [8]), in series [2] (setting [7]) and in series [3] (setting [9]) were 1260 nM, 3390 nM and 3.63 nM, respectively.
Consider `CC(=O)C1=C(C)NC(COCCCN)=C(C(=O)NCCCN2CCC(c3ccccc3)(c3ccccc3)CC2)C1c1ccc([N+](=O)[O-])cc1` (stereo not shown) [Example 236, 5-Acetyl-2-((3-aminopropyl)oxy)methyl-1,4-dihydro-6-methyl-4-(4-nitro)phenyl-3-(N-(3-(4,4-diphenylpiperidin-1-yl)propyl)) carboxamidopyridine], for which the Ki is 204 nM in series [1] (setting [8]), 347 nM in series [2] (setting [7]) and 2.51 nM in series [3] (setting [9]).

In general, melting point refers to the temperature of the solid-liquid transition.
